Source: the supplement of paper PMC4862054
Several values for one entry are separate records, joined by “and”; a condition that tells them apart may be missing. Equal values may be shown once.

Tests used:
Details in all cases: incubation time: 72 h
CAL-85-1 [1] = assay: normalised viability (% of control), CellTiter-Blue; higher = more viable cells (about 100 = DMSO control)
Description: (§1)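 DSRT, CellTiter-Blue viability, 72 h incubation. Signal is normalised to DMSO and benzethonium chloride controls. Value is the normalised response at dose 6.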

MDA-MB-453 [2] = assay: as above
Description: as §1

DU-4475 [3] = assay: as above
Description: as §1

CAL-148 [4] = assay: as above
Description: as §1

CAL-51 [5] = assay: as above
Description: as §1

MDA-MB-231 [6] = assay: normalised response (% of control), CellTiter-Glo; higher = more viable cells (100 = DMSO, 0 = benzethonium chloride kill control)
Description: (§2)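 DSRT, 72 h incubation, CellTox Green / CellTiter-Glo readout. Signal is normalised to DMSO and benzethonium chloride controls. Value is the normalised response at the highest dose.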

MDA-MB-468 [7] = assay: as above
Description: as §2

HCC1143 [8] = assay: as above
Description: as §2

CAL-85-1 [9] = assay: as above
Description: as §2

MDA-MB-453 [10] = assay: as above
Description: as §2

MFM-223 [11] = assay: as above
Description: as §2

HCC1599 [12] = assay: as above
Description: as §2

Hs578T [13] = assay: as above
Description: as §2

BT-549 [14] = assay: as above
Description: as §2

HDQ-P1 [15] = assay: as above
Description: as §2

BT-474 [16] = assay: as above
Description: as §2

SK-BR-3 = assay: as above
Description: as §2

DU-4475 [17] = assay: as above
Description: as §2

MDA-MB-436 [18] = assay: as above
Description: as §2

CAL-120 [19] = assay: as above
Description: as §2

CAL-148 [20] = assay: as above
Description: as §2

HCC1937 [21] = assay: as above
Description: as §2

MCF-10A [22] = assay: as above
Description: as §2

CAL-51 [23] = assay: as above
Description: as §2

MDA-MB-231 [24] = assay: normalised response (% of control), CellTox Green; higher = less cell death (100 = DMSO, 0 = benzethonium chloride kill control)
In short: (§3)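 Plates were normalised with 0.1 % DMSO as 100 and a positive kill control as 0. Breast cancer cell lines in 20 µl suspension had been seeded into 384-well plates with compound at 5 concentrations in 10-fold steps over a compound-specific 10,000-fold range, incubated 72 h, and read for CellTox Green fluorescence (485/520 nm) followed by CellTiter-Glo luminescence. Each value is the normalised signal at a single concentration.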

MDA-MB-468 [25] = assay: as above
In short: as §3

HCC1143 [26] = assay: as above
In short: as §3

CAL-85-1 [27] = assay: as above
In short: as §3

MDA-MB-453 [28] = assay: as above
In short: as §3

MFM-223 [29] = assay: as above
In short: as §3

HCC1599 [30] = assay: as above
In short: as §3

Hs578T [31] = assay: as above
In short: as §3

BT-549 [32] = assay: as above
In short: as §3

HDQ-P1 [33] = assay: as above
In short: as §3

BT-474 [34] = assay: as above
In short: as §3

DU-4475 [35] = assay: as above
In short: as §3

MDA-MB-436 [36] = assay: as above
In short: as §3

CAL-120 [37] = assay: as above
In short: as §3

CAL-148 [38] = assay: as above
In short: as §3

HCC1937 [39] = assay: as above
In short: as §3

MCF-10A [40] = assay: as above
In short: as §3

CAL-51 [41] = assay: as above
In short: as §3

O=C(CCCCCCC(=O)Nc1ccccc1)NO [Vorinostat] (300 nM)
normalised viability (CAL-85-1 [1]): 95.3% and 104%
normalised viability (MDA-MB-453 [2]): 82.8% and 81.7%
normalised viability (DU-4475 [3]): 97.4% and 88.9%
normalised viability (CAL-148 [4]): 85.6% and 94.9%
normalised viability (CAL-51 [5]): 116% and 104%

CC1(COc2ccc3c(c2)ncn3-c2ccc3cccc(N4CCC(N)CC4)c3n2)COC1 [Crenolanib] (10000 nM)
normalised response (MDA-MB-231 [6]): 0.75%
normalised response (MDA-MB-468 [7]): 12.9%
normalised response (HCC1143 [8]): 75.8%
normalised response (CAL-85-1 [9]): 1.52%
normalised response (MDA-MB-453 [10]): 15.6%
normalised response (MFM-223 [11]): 61.4%
normalised response (HCC1599 [12]): 60.6%
normalised response (Hs578T [13]): 27.5%
normalised response (BT-549 [14]): 20.6%
normalised response (HDQ-P1 [15]): 13.9%
normalised response (BT-474 [16]): 3.8%
normalised response (SK-BR-3): 2.13%
normalised response (DU-4475 [17]): 25%
normalised response (MDA-MB-436 [18]): 7.1%
normalised response (CAL-120 [19]): 52.4%
normalised response (CAL-148 [20]): 8.15%
normalised response (HCC1937 [21]): 52.4%
normalised response (MCF-10A [22]): 10.4%
normalised response (CAL-51 [23]): 7.22%
normalised response (MDA-MB-231 [24]): -59%
normalised response (MDA-MB-468 [25]): 131%
normalised response (HCC1143 [26]): 55.7%
normalised response (CAL-85-1 [27]): -25.9%
normalised response (MDA-MB-453 [28]): 78.5%
normalised response (MFM-223 [29]): 93.4%
normalised response (HCC1599 [30]): 81.5%
normalised response (Hs578T [31]): 103%
normalised response (BT-549 [32]): 28.9%
normalised response (HDQ-P1 [33]): 39.2%
normalised response (BT-474 [34]): 17.5%
normalised response (DU-4475 [35]): 63.6%
normalised response (MDA-MB-436 [36]): 36.1%
normalised response (CAL-120 [37]): 74.8%
normalised response (CAL-148 [38]): -15.7%
normalised response (HCC1937 [39]): 87.1%
normalised response (MCF-10A [40]): -4.14%
normalised response (CAL-51 [41]): 30.6%
